Source: patent US4442044A, “Process for preparing monoesters and diesters of N-alkyl substituted amino methyl phosphonic acid” (priority 1983, dated 1984)

Tests used:
Experiment in all cases: post-emergent herbicidal activity, greenhouse
Format in all cases: in vivo
Details in all cases: Table I
Barnyardgrass = system: Barnyardgrass
Source text: (§1) A good grade of top soil is placed in aluminum pans having holes in the bottom and compacted to a depth of 0.95 to 1.27 cm. from the top of the pan. A predetermined number of seeds of each of several dicotyledonous and monocotyledonous annual plant species and/or vegetative propagules for the perennial plant species were placed on the soil and pressed into the soil surface. The seeds and/or vegetative propagules are covered with soil and leveled. The pans are then placed on a sand bench in the greenhouse and watered from below as needed. After the plants reach the desired age (two to three weeks), each pan except for the control pans is removed individually to a spraying chamber and sprayed by means of an atomizer operating at a positive air pressure of approximately 1.46 kg/cm^2 absolute. The atomizer contains 6 ml. of a solution or suspension of the chemical. In that 6 ml., is an amount of a cyclohexanone emulsifying agent mixture to give a spray solution or suspension which contains about 0.4% by weight of the emulsifier. The spray solution or suspension contains a sufficient amount of the candidate chemical in order to give application rates corresponding to those set forth in the tables. The spray solution is prepared by taking an aliquot of a 1.0% by weight stock solution or suspension of the candidate chemical in an organic solvent such as acetone or tetrahydrofuran or in water. The emulsifying agent employed is a mixture comprising 35 weight percent butylamine dodecylbenzene sulfonate and 65 weight percent of a tall oil ethylene oxide condensate having about 11 moles of ethylene oxide per mole of tall oil. The pans are returned to the greenhouse and watered as before and the injury to the plants as compared to the control is observed at approximately two and four weeks as indicated in the tables under WAT and the results recorded. In some instances, the two-week observations are omitted.
(§2) The post-emergent herbicidal activity index used in Tables I and II is as follows: […]

Canada Thistle = system: Canada Thistle
Source text: as §1, §2

Cocklebur = system: Cocklebur
Source text: as §1, §2

Downy Brome = system: Downy Brome
Source text: as §1, §2

Johnsongrass = system: Johnsongrass
Source text: as §1, §2

Lambsquarters = system: Lambsquarters
Source text: as §1, §2

Morningglory = system: Morningglory
Source text: as §1, §2

Quackgrass = system: Quackgrass
Source text: as §1, §2

Smartweed = system: Smartweed
Source text: as §1, §2

Velvetleaf = system: Velvetleaf
Source text: as §1, §2

Yellow Nutsedge = system: Yellow Nutsedge
Source text: as §1, §2

| Structure (SMILES) | post-emergent herbicidal activity index (Barnyardgrass; 4 WAT, 5.6 kg/h) | post-emergent herbicidal activity index (Barnyardgrass; 4 WAT, 11.2 kg/h) | post-emergent herbicidal activity index (Canada Thistle; 4 WAT, 5.6 kg/h) | post-emergent herbicidal activity index (Canada Thistle; 4 WAT, 11.2 kg/h) | post-emergent herbicidal activity index (Cocklebur; 4 WAT, 5.6 kg/h) | post-emergent herbicidal activity index (Cocklebur; 4 WAT, 11.2 kg/h) | post-emergent herbicidal activity index (Downy Brome; 4 WAT, 5.6 kg/h) | post-emergent herbicidal activity index (Downy Brome; 4 WAT, 11.2 kg/h) | post-emergent herbicidal activity index (Johnsongrass; 4 WAT, 5.6 kg/h) | post-emergent herbicidal activity index (Johnsongrass; 4 WAT, 11.2 kg/h) | post-emergent herbicidal activity index (Lambsquarters; 4 WAT, 5.6 kg/h) | post-emergent herbicidal activity index (Lambsquarters; 4 WAT, 11.2 kg/h) | post-emergent herbicidal activity index (Morningglory; 4 WAT, 5.6 kg/h) | post-emergent herbicidal activity index (Morningglory; 4 WAT, 11.2 kg/h) | post-emergent herbicidal activity index (Quackgrass; 4 WAT, 5.6 kg/h) | post-emergent herbicidal activity index (Quackgrass; 4 WAT, 11.2 kg/h) | post-emergent herbicidal activity index (Smartweed; 4 WAT, 5.6 kg/h) | post-emergent herbicidal activity index (Smartweed; 4 WAT, 11.2 kg/h) | post-emergent herbicidal activity index (Velvetleaf; 4 WAT, 11.2 kg/h) | post-emergent herbicidal activity index (Yellow Nutsedge; 4 WAT, 11.2 kg/h) | further results |
| --- | --- | --- | --- | --- | --- | --- | --- | --- | --- | --- | --- | --- | --- | --- | --- | --- | --- | --- | --- | --- | --- |
| CCOC(=O)CNCP(=O)(OC(C)C(=O)OCC)OC(C)C(=O)OCC (stereo not drawn) [Example 16, propanoic acid, 2,2'-[[[[(2-ethoxy-2-oxoethyl)amino]methyl]phosphinylidene]bis(oxy)]-bis-,diethyl ester] | 1 (25-49% control) | 1 (25-49% control) | 0 (0-24% control) | 0 (0-24% control) | 0 (0-24% control) | 1 (25-49% control) | 0 (0-24% control) | 1 (25-49% control) | 0 (0-24% control) | 0 (0-24% control) | 0 (0-24% control) | 0 (0-24% control) | 1 (25-49% control) | 1 (25-49% control) | 0 (0-24% control) | 0 (0-24% control) | 0 (0-24% control) | 0 (0-24% control) | 0 (0-24% control) | 1 (25-49% control) | post-emergent herbicidal activity index (Velvetleaf; 4 WAT, 5.6 kg/h): 0 (0-24% control); post-emergent herbicidal activity index (Yellow Nutsedge; 4 WAT, 5.6 kg/h): 1 (25-49% control) |
| CCOC(=O)CNCP(=O)(OCCCl)OCCCl [Example 17, glycine, N-[[bis(2-chloroethoxy)phosphinyl]methyl]-, ethyl ester] | – | 1 (25-49% control) | – | 0 (0-24% control) | – | 0 (0-24% control) | – | 0 (0-24% control) | – | 0 (0-24% control) | – | 1 (25-49% control) | – | 1 (25-49% control) | – | 0 (0-24% control) | – | 1 (25-49% control) | 1 (25-49% control) | 0 (0-24% control) | post-emergent herbicidal activity index (Barnyardgrass; 2 WAT, 5.6 kg/h): 0 (0-24% control); post-emergent herbicidal activity index (Canada Thistle; 2 WAT, 5.6 kg/h): 0 (0-24% control); post-emergent herbicidal activity index (Cocklebur; 2 WAT, 5.6 kg/h): 0 (0-24% control); post-emergent herbicidal activity index (Downy Brome; 2 WAT, 5.6 kg/h): 0 (0-24% control); post-emergent herbicidal activity index (Johnsongrass; 2 WAT, 5.6 kg/h): 0 (0-24% control); post-emergent herbicidal activity index (Lambsquarters; 2 WAT, 5.6 kg/h): 0 (0-24% control); post-emergent herbicidal activity index (Morningglory; 2 WAT, 5.6 kg/h): 0 (0-24% control); post-emergent herbicidal activity index (Quackgrass; 2 WAT, 5.6 kg/h): 0 (0-24% control); post-emergent herbicidal activity index (Smartweed; 2 WAT, 5.6 kg/h): 0 (0-24% control); post-emergent herbicidal activity index (Velvetleaf; 2 WAT, 5.6 kg/h): 0 (0-24% control); post-emergent herbicidal activity index (Yellow Nutsedge; 2 WAT, 5.6 kg/h): 0 (0-24% control) |
| CCOC(=O)CNCP(=O)(OC(C)C(=O)OC)OC(C)C(=O)OC (stereo not drawn) [Example 18] | 1 (25-49% control) | 2 (50-74% control) | 0 (0-24% control) | 0 (0-24% control) | 0 (0-24% control) | 0 (0-24% control) | 0 (0-24% control) | 2 (50-74% control) | 0 (0-24% control) | 1 (25-49% control) | 0 (0-24% control) | 0 (0-24% control) | 1 (25-49% control) | 1 (25-49% control) | 0 (0-24% control) | 3 (75-99% control) | 0 (0-24% control) | 0 (0-24% control) | 0 (0-24% control) | 2 (50-74% control) | post-emergent herbicidal activity index (Velvetleaf; 4 WAT, 5.6 kg/h): 0 (0-24% control); post-emergent herbicidal activity index (Yellow Nutsedge; 4 WAT, 5.6 kg/h): 1 (25-49% control) |
| CCOC(=O)CNCP(=O)(OCCSC(=O)OCC)OCCSC(=O)OCC [Example 19, glycine, N-[[bis[2-[(ethoxycarbonyl)thio]ethoxy]-phosphinyl]methyl]-, ethyl ester] | 1 (25-49% control) | 2 (50-74% control) | 1 (25-49% control) | 2 (50-74% control) | 0 (0-24% control) | 2 (50-74% control) | 0 (0-24% control) | 0 (0-24% control) | 1 (25-49% control) | 2 (50-74% control) | 0 (0-24% control) | 0 (0-24% control) | 2 (50-74% control) | 2 (50-74% control) | 0 (0-24% control) | 1 (25-49% control) | 0 (0-24% control) | 1 (25-49% control) | 0 (0-24% control) | 1 (25-49% control) | post-emergent herbicidal activity index (Velvetleaf; 4 WAT, 5.6 kg/h): 0 (0-24% control); post-emergent herbicidal activity index (Yellow Nutsedge; 4 WAT, 5.6 kg/h): 0 (0-24% control) |
| CCOC(=O)CNCP(=O)(OC1CCCSC1)OC1CCCSC1 (stereo not drawn) [Example 20, glycine, N-[[bis[(tetrahydro-2H-thiopyran-3-yl)-oxy]-phosphinyl]methyl]-, ethyl ester] | – | 1 (25-49% control) | – | 0 (0-24% control) | – | 0 (0-24% control) | – | 0 (0-24% control) | – | 0 (0-24% control) | – | 1 (25-49% control) | – | 1 (25-49% control) | – | 1 (25-49% control) | – | 0 (0-24% control) | 1 (25-49% control) | 0 (0-24% control) | post-emergent herbicidal activity index (Barnyardgrass; 2 WAT, 5.6 kg/h): 0 (0-24% control); post-emergent herbicidal activity index (Canada Thistle; 2 WAT, 5.6 kg/h): 0 (0-24% control); post-emergent herbicidal activity index (Cocklebur; 2 WAT, 5.6 kg/h): 0 (0-24% control); post-emergent herbicidal activity index (Downy Brome; 2 WAT, 5.6 kg/h): 0 (0-24% control); post-emergent herbicidal activity index (Johnsongrass; 2 WAT, 5.6 kg/h): 0 (0-24% control); post-emergent herbicidal activity index (Lambsquarters; 2 WAT, 5.6 kg/h): 0 (0-24% control); post-emergent herbicidal activity index (Morningglory; 2 WAT, 5.6 kg/h): 0 (0-24% control); post-emergent herbicidal activity index (Quackgrass; 2 WAT, 5.6 kg/h): 0 (0-24% control); post-emergent herbicidal activity index (Smartweed; 2 WAT, 5.6 kg/h): 0 (0-24% control); post-emergent herbicidal activity index (Velvetleaf; 2 WAT, 5.6 kg/h): 0 (0-24% control); post-emergent herbicidal activity index (Yellow Nutsedge; 2 WAT, 5.6 kg/h): 0 (0-24% control) |
| CCOC(=O)CNCP(=O)(OCc1ccco1)OCc1ccco1 [Example 21, glycine, N-[[bis(2-furanylmethoxy)phosphinyl]methyl]-, ethyl ester] | – | 0 (0-24% control) | – | 0 (0-24% control) | – | 0 (0-24% control) | – | 0 (0-24% control) | – | 0 (0-24% control) | – | 0 (0-24% control) | – | 1 (25-49% control) | – | 0 (0-24% control) | – | 0 (0-24% control) | 0 (0-24% control) | 0 (0-24% control) | post-emergent herbicidal activity index (Barnyardgrass; 4 WAT, 56.0 kg/h): 2 (50-74% control); post-emergent herbicidal activity index (Canada Thistle; 4 WAT, 56.0 kg/h): 3 (75-99% control); post-emergent herbicidal activity index (Cocklebur; 4 WAT, 56.0 kg/h): 2 (50-74% control); post-emergent herbicidal activity index (Downy Brome; 4 WAT, 56.0 kg/h): 1 (25-49% control); post-emergent herbicidal activity index (Johnsongrass; 4 WAT, 56.0 kg/h): 0 (0-24% control); post-emergent herbicidal activity index (Lambsquarters; 4 WAT, 56.0 kg/h): 1 (25-49% control); post-emergent herbicidal activity index (Morningglory; 4 WAT, 56.0 kg/h): 2 (50-74% control); post-emergent herbicidal activity index (Quackgrass; 4 WAT, 56.0 kg/h): 0 (0-24% control); post-emergent herbicidal activity index (Smartweed; 4 WAT, 56.0 kg/h): 1 (25-49% control); post-emergent herbicidal activity index (Velvetleaf; 4 WAT, 56.0 kg/h): 1 (25-49% control); post-emergent herbicidal activity index (Yellow Nutsedge; 4 WAT, 56.0 kg/h): 1 (25-49% control) |
